In publication PMC4448982, “LP-925219 maximizes urinary glucose excretion in mice by inhibiting both renal SGLT1 and SGLT2” (Pharmacology Research & Perspectives, 2015):

What was measured:
[1] = molecular target: T1, mouse SGLT2 (Mus musculus, UniProt Q923I7); assay: 14C-AMG uptake assay, HEK293 cells expressing mouse SGLT2; assay type: cell-based; settings: mean ± SD
T1 construct: expressed in transfected cells; host or cells: HEK293 (per abstract)
T1 sequence (Q923I7 1-670): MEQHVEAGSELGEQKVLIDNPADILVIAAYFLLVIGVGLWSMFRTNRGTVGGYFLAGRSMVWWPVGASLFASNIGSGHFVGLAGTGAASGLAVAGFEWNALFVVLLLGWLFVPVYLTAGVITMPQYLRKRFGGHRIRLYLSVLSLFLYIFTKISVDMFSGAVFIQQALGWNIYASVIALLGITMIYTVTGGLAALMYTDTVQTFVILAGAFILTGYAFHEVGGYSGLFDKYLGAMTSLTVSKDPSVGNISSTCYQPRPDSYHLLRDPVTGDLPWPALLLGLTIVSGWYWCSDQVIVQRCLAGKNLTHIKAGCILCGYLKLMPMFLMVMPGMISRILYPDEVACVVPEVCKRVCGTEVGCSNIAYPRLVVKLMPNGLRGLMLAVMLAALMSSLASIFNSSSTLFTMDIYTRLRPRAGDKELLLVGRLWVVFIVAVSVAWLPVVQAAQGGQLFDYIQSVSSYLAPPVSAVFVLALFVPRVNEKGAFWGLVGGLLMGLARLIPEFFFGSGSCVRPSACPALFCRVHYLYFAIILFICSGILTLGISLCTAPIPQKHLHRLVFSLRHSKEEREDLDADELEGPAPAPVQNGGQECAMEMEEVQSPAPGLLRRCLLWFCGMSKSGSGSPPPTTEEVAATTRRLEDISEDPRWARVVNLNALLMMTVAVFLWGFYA
Source text: Methods for generating cell lines expressing mouse, rat, and dog SGLT1 and SGLT2 are published (Powell et al. [2013b], [2014]). Full-length coding sequence of human SGLT1 (NP_000334) and human SGLT2 (NP_003032.1) with an HA-tag at the N-terminus were cloned into the mammalian expression vector pIRESpuro2 (Clontech, Mountain View, CA). HEK293 cells (ATCC, Manassas, VA) were transfected with the pIRESpuro2 vector containing human SGLT1 or SGLT2 and bulk stable cell lines were selected in the presence of 0.5 μg/mL of puromycin.
Cell lines expressing SGLT1 or SGLT2 were plated into poly-D-lysine-coated 384-well plates, and culture overnight in cell growth medium. Cells were washed, and then incubated in uptake buffer ([…], […] KCl, […] CaCl2, […] MgCl2, […] HEPES/Tris, 1 mg/mL of bovine serum albumin, pH7.4) containing [^14C]α-methylglucopyranoside (^14C-AMG), a nonmetabolizable glucose analog specific for sodium-dependent glucose transporters (Wright and Turk [2004]). The inhibition of SGLT1 or SGLT2 was determined by measuring SGLT1/2-mediated ^14C-AMG uptake in the presence of increasing compound concentrations of LP-925219. […] Standard sigmoidal dose–response model curves were fitted, and the IC50 value was computed as the LP-925219 concentration that inhibited the ^14C-AMG uptake by 50% between baseline and maximum uptake.

[2] = system: renal SGLT1 and SGLT2; assay: Metabolic cage study, 24-h urinary glucose excretion; assay type: in vivo, mouse
Description: Mice were individually housed in Nalgene Metabolic Cages for Mice (product MTB-0311), and 24-h urine collections were made to determine 24-h UGE, as described previously (Powell et al. [2013a]). Some mice received a single dose of either LP-925219 or vehicle by oral gavage at 8 am immediately prior to initiating collection of 24-h urine samples; in addition, some mice received two doses of either vehicle or 60 mg/kg LP-925219 by oral gavage, with the first dose given at 8 am and the second dose given at 6 pm, nearly midway through the collection of the 24-h urine sample.
Figure 5 UGE values in mice treated with a single dose of LP-925219. After DKO, S2 KO, S1 KO, and WT littermate mice received, by a single oral gavage at 8 am, either vehicle (Veh) or LP-925219 at a dose of (A) 1 mg/kg; (B) 10 mg/kg; or (C) 60 mg/kg, the mice were placed in metabolic cages and their urine was collected over the next 24 h and analyzed for total glucose. N = 5–11 mice/group. UGE < DKO UGE: *P < 0.05, **P < 0.01, ***P < 0.001; LP-925219 UGE > Veh UGE for the same group, ^^^P < 0.001. UGE, urinary glucose excretion.
Figure 6 UGE values in mice treated with two doses of 60 mg/kg LP-925219. DKO, S2 KO, S1 KO, and WT littermate mice received, by oral gavage at 8 am and then again at 6 pm, either vehicle (Veh) or LP-925219 at a dose of 60 mg/kg. The mice were placed in metabolic cages after the first gavage and their urine was collected over the next 24 h and analyzed for total glucose. N = 6–11 mice/group. UGE < DKO UGE, ***P < 0.001; LP-925219 UGE > Veh UGE for the same group, ^^^P < 0.001. UGE, urinary glucose excretion.

COc1ccc(Cc2cc([C@@H]3O[C@H](SC)[C@@H](O)[C@H](O)[C@H]3O)ccc2Cl)cc1 [LP-925219]
IC50 [1]: 0.5 ± 0.1 nM | 24-h UGE ([2]; DKO mice, single oral dose 1, 10 or 60 mg/kg, vs vehicle): not significantly increased | 24-h UGE ([2]; DKO mice, two oral 60 mg/kg doses (8 am, 6 pm), vs vehicle): not significantly increased | 24-h UGE ([2]; SGLT1 KO mice, single oral dose 1 mg/kg): almost maximal | 24-h UGE ([2]; SGLT1 KO mice, single oral dose, all higher doses (10, 60 mg/kg)): maximal | 24-h UGE ([2]; SGLT1 KO mice, two oral 60 mg/kg doses (8 am, 6 pm)): maximally increased | 24-h UGE ([2]; WT mice, single oral dose 1 mg/kg, vs vehicle): did not show a significant response | 24-h UGE ([2]; WT mice, single oral dose 60 mg/kg, maximal = vehicle-treated DKO): 68 ± 15 % of maximal | 24-h UGE ([2]; WT mice, two oral 60 mg/kg doses (8 am, 6 pm)): 90 ± 17 % of maximal
